Like-named read-outs stand apart in the source and are kept apart here. No end group written: not given here.

Data on three substances can be found in paper PMC9495826, “Membranolytic Mechanism of Amphiphilic Antimicrobial β-Stranded [KL]n Peptides” (Biomedicines, 2022).

Data set [1] deals with Bacillus subtilis (DSM 347). Format: cell-based. To be noted: DSM 347, 20 h. As for the experimental part: (§1) The antimicrobial activity of the KL peptides was determined with a MIC assay. Peptide activity was tested against Gram-negative Escherichia coli (DSM 1116) and Enterobacter helveticus (DSM 18390) and against Gram-positive Bacillus subtilis (DSM 347) and Staphylococcus xylosus (DSM 20287) as previously reported. Our standard MIC assay was modified to avoid unnecessary exposure of peptides to the phosphate-containing growth medium, which was previously found to affect the results due to phosphate-induced aggregation of peptides. Details can be found in the Supplementary Materials.
(§2) The activity of KL and LK peptides against bacteria was examined using a MIC assay. […] We have previously shown that KL peptides, especially the longer ones, aggregate vigorously in the presence of phosphate ions. […] Therefore, here we used a modified MIC assay that was developed in our previous study, as described in the Methods section. In this approach, a two-fold dilution series was first prepared with peptides dissolved in water, and only thereafter were the bacteria in the medium added so that the peptides were simultaneously exposed to bacteria and phosphate-containing medium.
(§3) 1.3 MIC (minimum inhibitory concentration) assay
(§4) Antimicrobial activity was measured by a minimal inhibitory concentration (MIC) assay, carried out with Gram-positive Bacillus subtilis (DSM 347) and Staphylococcus xylosus (DSM 20287) and with Gram-negative Escherichia coli (DSM 1116) and Enterobacter helvet-icus (DSM 18390). Bacteria were grown in Müller-Hinton medium at 37°C overnight. Bac-terial solutions with OD550 = 0.2 was further diluted 1:100 for Gram-positive and 1:1000 for Gram-negative bacteria to get a concentration of […] colony forming units (CFU)/mL. Mi-crotiter plates (96 wells of 100 μL) were filled peptide solution to obtain serial 2-fold dilu-tion series of peptides. 50 µL of pure water was first added to each well. To the first well 50 µL peptide solution was added, after mixing 50 µL of this was transferred to the second well and so on. After all plates were prepared, 50 µL bacterial solution in double-concen-tration MHM was added to the wells (except for the final row of each plate) to give a final concentration of 5 × 10^5 CFU/mL in the wells. Thus, peptides got in contact with phosphate and bacteria simultaneously. […]
(§5) gregate stronlgy in contact with the phosphate containing growth medium. The two final rows of each plate remained without peptide, so that the penultimate data point served as the positive co ntrol (no peptide), and the final one as the negative control (not inoculated). The plates were incubated at 37°C for 20 h, and cell viability was probed by addition of 20 µL 0.2 mg/mL resazurin and incubation at 37°C for 2 h. The MIC value was determined visually as the lowest peptide concentration inhibiting bacterial growth. […]
(§6) Unencapsulated dye was removed by gel filtration using spin columns filled with Sephacryl 100-HR (Sigma-Aldrich, Taufkirchen, Germany), and equilibrated with an elu-tion buffer (150 mM NaCl, 10 mM HEPES, pH 7.5), which balances the internal vesicle

For data set [2], the system named is Enterobacter helveticus (DSM 18390). It is filed as cell-based. To be noted: DSM 18390, 20 h. As for the experimental part: as §1, §2, §3, §4, §5, §6
For data set [3], the system named is Escherichia coli (DSM 1116). It is filed as cell-based. To be noted: DSM 1116, 20 h. Here is the method:
as §1, §2, §3, §4, §5, §6

The test system of data set [4] is Staphylococcus xylosus (DSM 20287). It is filed as cell-based. To be noted: DSM 20287, 20 h. As for the experimental part: as §1, §2, §3, §4, §5, §6
The subject of data set [5] is erythrocytes. The data set is described as follows: Hemolysis assay. Format: cell-based. To be noted: for Hemolysis HC50 (concentration of peptide giving 50% hemolysis): 20 h.
For data set [6], the system named is four bacterial strains. As to the kind of experiment: MIC assay, overall statement for the four strains. It is filed as cell-based, E. coli, E. helveticus, B. subtilis, S. xylosus. To be noted: modified MIC assay. Here is the method: as §1
The activity of KL and LK peptides against bacteria was examined using a MIC assay. […] We have previously shown that KL peptides, especially the longer ones, aggregate vigorously in the presence of phosphate ions. […] Therefore, here we used a modified MIC assay that was developed in our previous study, as described in the Methods section. […]
Antimicrobial activity was measured by a minimal inhibitory concentration (MIC) assay, carried out with Gram-positive Bacillus subtilis (DSM 347) and Staphylococcus xylosus (DSM 20287) and with Gram-negative Escherichia coli (DSM 1116) and Enterobacter helvet-icus (DSM 18390). […]
gregate stronlgy in contact with the phosphate containing growth medium. […] The MIC value was determined visually as the lowest peptide concentration inhibiting bacterial growth. […]

Data set [7] relates to four bacterial strains. To be noted: earlier study; ref [15]; cited from earlier work. The text has this:
(§7) Many natural and man-made AMPs are cationic and fold into simple amphiphilic α-helices. Much fewer examples exist of another fundamental type of secondary structure, namely amphiphilic β-strands. A classic model sequence, [KIGAKI]3-NH2, had been designed from alternating polar and hydrophobic side chains. Recently, we presented an even simpler group of so-called KL peptides, consisting of the alternating (lysine-leucine) dipeptide repeat: [KL]n-NH2. Recently, four KLx peptides of different lengths (x = number of residues, x = 2n) with 6–18 amino acids were compared in terms of ...

Data set [8] has as its system erythrocytes. To be noted: cited from earlier work.
Text: as §7

Turning to KLKLKLKLKL-NH2 [KL10], the “MIC B. subtilis” value in data set [1] is recorded as 2 µg/mL. The “MIC E. helveticus” value in data set [2] is reported as 2 µg/mL. The “MIC E. coli” value in data set [3] stood at 4 µg/mL. Moreover, the “MIC S. xylosus” value in data set [4] was 2 µg/mL. Further, in the data set on erythrocytes [5], the “Hemolytic activity (in words)” value is “considerably more hemolytic than LK10” and the “Hemolysis HC50 (concentration of peptide giving 50% hemolysis)” value is on record as 47 µg/mL. In the data set with four bacterial strains [6], the “Antimicrobial activity (in words)” value is given as “highest activity”. For the same substance, the “Antimicrobial effect (in words)” value in the data set with four bacterial strains [7] was “better antimicrobial effect than KL6, KL14 or KL18”.
For KLKLKLKLKLKLKL-NH2 [KL14], the “MIC B. subtilis” value in data set [1] turned out to be 4 µg/mL. Besides, the “MIC E. helveticus” value in data set [2] is reported as 4 µg/mL. The “MIC E. coli” value in data set [3] is given as 8 µg/mL. For the same substance, in data set [4], the “MIC S. xylosus” value was determined as 4 µg/mL. The “Hemolysis HC50 (concentration of peptide giving 50% hemolysis)” value in the data set with erythrocytes [5] was found to be 1 µg/mL. The “Hemolytic activity (in words)” value in the data set on erythrocytes [8] was “highly hemolytic”.
Turning to KLKLKLKLKLKLKLKLKL-NH2 [KL18], the “MIC B. subtilis” value in data set [1] is listed as 32 µg/mL. Further, in data set [2], the “MIC E. helveticus” value is reported as 16 µg/mL. In data set [3], the “MIC E. coli” value is on record as 32 µg/mL. Further, the “MIC S. xylosus” value in data set [4] was 8 µg/mL. In the data set with erythrocytes [5], the “Hemolysis HC50 (concentration of peptide giving 50% hemolysis)” value is reported as 1 µg/mL. The “Hemolytic activity (in words)” value in the data set with erythrocytes [8] is on record as “highly hemolytic”.
